Laboratory results: patent publication US20260159481A1, “INDOLE DERIVATIVE WITH SUBSTITUENT AND PHARMACEUTICAL USE” (MITOIMMUNE THERAPEUTICS INC., priority 2023, published 2026)

Tested on: cardiac cells (H9C2)
Experiment: Protective effect against t-BHP-induced cell death in cardiac cells (LDH release)
Type: cell-based
Conditions: Rattus norvegicus, t-BHP 400 PM, 2 hours, read-out: EC50, protective effect against cell death due to t-BHP induction
Method: To confirm a protective effect on cardiac cells, H9C2 cells were seeded at 1.5×10^4 cells/well in a 96-well plate and cultured for 24 hours. The example compounds were diluted to have the final concentration of 0.001, 0.01, 0.03, 0.1, 0.3, 1, 3, 10, and 30 PM, respectively, and then added to different wells, and the resulting cells were cultured for 15 to 20 minutes. Tert-butyl hydroperoxide (t-BHP) was treated to have the final concentration of 400 PM, and the resulting cells were cultured for 2 hours. To confirm the cell death protection effect of each compound, the degree of extracellular secretion of lactate dehydrogenase (LDH) was measured using a cytotoxicity LDH assay kit [Dojindo; CK12]. Briefly, after 2 hours of t-BHP treatment on the cells, 70 μL of the supernatant was taken from the 96-well plate where the cells were cultured and transferred to a new 96-well plate. The assay buffer included in the kit was added at 70 μL/well (equal to that of the sample) and the plate was covered with foil to block light and allowed to react for 15 minutes at room temperature. While observing a color change of each sample, 35 μL/well of a stop solution was added, an absorbance at 490 nm was measured using an iD3 spectrophotometer, and an EC50 value was calculated.

| Compound | EC50 [nM] |
| --- | --- |
| CCN(CC)C(=O)c1cc(NC2CCCC2)c2[nH]c(-c3ccccc3)cc2c1 [Example 1, 7-(cyclopentylamino)-N,N-diethyl-2-phenyl-1H-indol-5-carboxamide] | ≤ 300 |
| CCN(CC)C(=O)c1cc(NC2CCOCC2)c2[nH]c(-c3ccccc3)cc2c1 [Example 2, N,N-diethyl-2-phenyl-7-((tetrahydro-2H-pyran-4-yl)amino)-1H-indol-5-carboxamide] | ≤ 300 |
| CCN(CC)C(=O)c1cc(NCc2ccccc2)c2[nH]c(-c3ccccc3)cc2c1 [Example 3, 7-(benzylamino)-N,N-diethyl-2-phenyl-1H-indole-5-carboxamide] | ≤ 300 |
| CCN(CC)C(=O)c1cc(NCc2ccncc2)c2[nH]c(-c3ccccc3)cc2c1 [Example 4, N,N-diethyl-2-phenyl-7-((pyridin-4-ylmethyl)amino)-1H-indole-5-carboxamide] | ≤ 300 |
| O=C(NC1CC1)c1cc(NC2CCCC2)c2[nH]c(-c3ccccc3)cc2c1 [Example 5, 7-(cyclopentylamino)-N-cyclopropyl-2-phenyl-1H-indole-5-carboxamide] | ≤ 300 |
| O=C(NC1CC1)c1cc(NC2CCOCC2)c2[nH]c(-c3ccccc3)cc2c1 [Example 6, N-cyclopropyl-2-phenyl-7-((tetrahydro-2H-pyran-4-yl)amino)-1H-indole-5-carboxamide] | ≤ 300 |
| O=C(NC1CC1)c1cc(NCc2ccccc2)c2[nH]c(-c3ccccc3)cc2c1 [Example 7, 7-(benzylamino)-N-cyclopropyl-2-phenyl-1H-indole-5-carboxamide] | ≤ 300 |
| O=C(Nc1ccccc1)c1cc(NC2CCOCC2)c2[nH]c(-c3ccccc3)cc2c1 [Example 9, N,2-diphenyl-7-((tetrahydro-2H-pyran-4-yl)amino)-1H-indole-5-carboxamide] | 300 to 1000 |
| O=C(Nc1ccccc1)c1cc(NCc2ccccc2)c2[nH]c(-c3ccccc3)cc2c1 [Example 10, 7-(benzylamino)-N,2-diphenyl-1H-indole-5-carboxamide] | 300 to 1000 |
| CCN(CC)C(=O)Cc1cc(NC2CCCC2)c2[nH]c(-c3ccccc3)cc2c1 [Example 11, 2-(7-(cyclopentylamino)-2-phenyl-1H-indol-5-yl)-N,N-diethylacetamide] | 300 to 1000 |
| CCN(CC)C(=O)Cc1cc(NC2CCOCC2)c2[nH]c(-c3ccccc3)cc2c1 [Example 12, N,N-diethyl-2-(2-phenyl-7-((tetrahydro-2H-pyran-4-yl)amino)-1H-indol-5-yl)acetamide] | ≤ 300 |
| CCN(CC)C(=O)Cc1cc(NCc2ccncc2)c2[nH]c(-c3ccccc3)cc2c1 [Example 13, N,N-diethyl-2-(2-phenyl-7-((pyridin-4-ylmethyl)amino)-1H-indol-5-yl)acetamide] | 300 to 1000 |
| CNC(=O)Cc1cc(NC2CCOCC2)c2[nH]c(-c3ccccc3)cc2c1 [Example 15, N-methyl-2-(2-phenyl-7-((tetrahydro-2H-pyran-4-yl)amino)-1H-indol-5-yl)acetamide] | ≤ 300 |
| CNC(=O)Cc1cc(NC2CCCC2)c2[nH]c(-c3ccccc3)cc2c1 [Example 16, 2-(7-(cyclopentylamino)-2-phenyl-1H-indol-5-yl)-N-methylacetamide] | ≤ 300 |
| O=C(Cc1cc(NCc2ccccc2)c2[nH]c(-c3ccccc3)cc2c1)NC1CC1 [Example 17, 2-(7-(benzylamino)-2-phenyl-1H-indol-5-yl)-N-cyclopropylacetamide] | ≤ 300 |
| O=C(Cc1cc(NCc2ccccc2)c2[nH]c(-c3ccccc3)cc2c1)Nc1ccccc1 [Example 18, 2-(7-(benzylamino)-2-phenyl-1H-indol-5-yl)-N-phenylacetamide] | 300 to 1000 |
| O=C(Cc1cc(NC2CCOCC2)c2[nH]c(-c3ccccc3)cc2c1)Nc1ccccc1 [Example 19, N-phenyl-2-(2-phenyl-7-((tetrahydro-2H-pyran-4-yl)amino)-1H-indo1-5-yl)acetamide] | ≤ 300 |
| CCNS(=O)(=O)c1cc(NC2CCOCC2)c2[nH]c(-c3ccccc3)cc2c1 [Example 20, N-ethyl-2-phenyl-7-((tetrahydro-2H-pyran-4-yl)amino)-1H-indole-5-sulfonamide] | ≤ 300 |
| CCNS(=O)(=O)c1cc(NCc2ccccc2)c2[nH]c(-c3ccccc3)cc2c1 [Example 21, 7-(benzylamino)-N-ethyl-2-phenyl-1H-indole-5-sulfonamide] | > 1000 |
| N#CCc1cc(NC2CCOCC2)c2[nH]c(-c3ccccc3)cc2c1 [Example 23, 2-(2-phenyl-7-((tetrahydro-2H-pyran-4-yl)amino)-1H-indol-5-yl)acetonitrile] | ≤ 300 |

| Compound | EC50 [nM] |
| --- | --- |
| CC(C)(O)C#Cc1cc(NC2CCOCC2)c2[nH]c(-c3ccccc3)cc2c1 [Example 24, 2-methyl-4-(2-phenyl-7-((tetrahydro-2H-pyran-4-yl)amino)-1H-indol-5-yl)but-3-yn-2-ol] | ≤ 300 |
| CC(C)(O)C#Cc1cc(NC2CCCC2)c2[nH]c(-c3ccccc3)cc2c1 [Example 25, 4-(7-(cyclopentylamino)-2-phenyl-1H-indol-5-yl)-2-methylbut-3-yn-2-ol] | ≤ 300 |
| OCCOCc1cc(NC2CCCC2)c2[nH]c(-c3ccccc3)cc2c1 [Example 26, 2-((7-(cyclopentylamino)-2-phenyl-1H-indol-5-yl)methoxy)ethan-1-ol] | ≤ 300 |
| OCCOCCCc1cc(NC2CCOCC2)c2[nH]c(-c3ccccc3)cc2c1 [Example 28, 2-(3-(2-phenyl-7-((tetrahydro-2H-pyran-4-yl)amino)-1H-indol-5-yl)propoxy)ethan-1-ol] | ≤ 300 |
| CC(C)(O)COCc1cc(NC2CCOCC2)c2[nH]c(-c3ccccc3)cc2c1 [Example 30, 2-methyl-1-((2-phenyl-7-((tetrahydro-2H-pyran-4-yl)amino)-1H-indol-5-yl)methoxy)propan-2-ol] | ≤ 300 |
| CC(C)(O)COCCOCc1cc(NC2CCOCC2)c2[nH]c(-c3ccccc3)cc2c1 [Example 31, 2-methyl-1-(2-((2-phenyl-7-((tetrahydro-2H-pyran-4-yl)amino)-1H-indol-5-yl)methoxy)ethoxy)propan-2-ol] | ≤ 300 |
| CCC(O)(CC)COCCOCc1cc(NC2CCOCC2)c2[nH]c(-c3ccccc3)cc2c1 [Example 32, 3-((2-((2-phenyl-7-((tetrahydro-2H-pyran-4-yl)amino)-1H-indol-5-yl)methoxy)ethoxy)methyl)pentan-3-ol] | ≤ 300 |
| OCCOCCc1cc(NC2CCOCC2)c2[nH]c(-c3ccccc3)cc2c1 [Example 33, 2-(2-(2-phenyl-7-((tetrahydro-2H-pyran-4-yl)amino)-1H-indol-5-yl)ethoxy)ethan-1-ol] | ≤ 300 |
| OCCCOCCOCc1cc(NC2CCOCC2)c2[nH]c(-c3ccccc3)cc2c1 [Example 34, 3-(2-((2-phenyl-7-((tetrahydro-2H-pyran-4-yl)amino)-1H-indol-5-yl)methoxy)ethoxy)propan-1-ol] | ≤ 300 |
| OC1CCC(OCc2cc(NC3CCOCC3)c3[nH]c(-c4ccccc4)cc3c2)CC1 (stereo not drawn) [Example 35, 4-((2-phenyl-7-((tetrahydro-2H-pyran-4-yl)amino)-1H-indol-5-yl)methoxy)cyclohexan-1-ol] | ≤ 300 |
| c1ccc(-c2cc3cc(COC4CCOCC4)cc(NC4CCOCC4)c3[nH]2)cc1 [Example 37, 2-phenyl-N-(tetrahydro-2H-pyran-4-yl)-5-(((tetrahydro-2H-pyran-4-yl)oxy)methyl)-1H-indol-7-amine] | ≤ 300 |
| OC1CCC(OCCOCc2cc(NC3CCOCC3)c3[nH]c(-c4ccccc4)cc3c2)CC1 (stereo not drawn) [Example 38, 4-(2-((2-phenyl-7-((tetrahydro-2H-pyran-4-yl)amino)-1H-indol-5-yl)methoxy)ethoxy)cyclohexan-1-ol] | > 1000 |
| FCCOCc1cc(NC2CCOCC2)c2[nH]c(-c3ccccc3)cc2c1 [Example 39, 5-((2-fluoroethoxy)methyl)-2-phenyl-N-(tetrahydro-2H-pyran-4-yl)-1H-indol-7-amine] | ≤ 300 |
| c1ccc(-c2cc3cc(COCCN4CCOCC4)cc(NC4CCOCC4)c3[nH]2)cc1 [Example 42, 5-((2-morpholinoethoxy)methyl)-2-phenyl-N-(tetrahydro-2H-pyran-4-yl)-1H-indol-7-amine] | ≤ 300 |
| O=S1(=O)CCN(CCOCc2cc(NC3CCCC3)c3[nH]c(-c4ccccc4)cc3c2)CC1 [Example 43, 4-(2-((7-(cyclopentylamino)-2-phenyl-1H-indol-5-yl)methoxy)ethyl)thiomorpholine 1,1-dioxide] | ≤ 300 |
| CS(=O)(=O)CCOCc1cc(NC2CCCC2)c2[nH]c(-c3ccccc3)cc2c1 [Example 44, N-cyclopentyl-5-((2-(methylsulfonyl)ethoxy)methyl)-2-phenyl-1H-indol-7-amine] | ≤ 300 |
| CS(=O)(=O)CCOCc1cc(NC2CCOCC2)c2[nH]c(-c3ccccc3)cc2c1 [Example 45, 5-((2-(methylsulfonyl)ethoxy)methyl)-2-phenyl-N-(tetrahydro-2H-pyran-4-yl)-1H-indol-7-amine] | ≤ 300 |
| c1ccc(-c2cc3cc(COCCN4CCSCC4)cc(NC4CCOCC4)c3[nH]2)cc1 [Example 46, 2-phenyl-N-(tetrahydro-2H-pyran-4-yl)-5-((2-thiomorpholinoethoxy)methyl)-1H-indol-7-amine] | ≤ 300 |
| O=S1(=O)CCN(CCOCc2cc(NC3CCOCC3)c3[nH]c(-c4ccccc4)cc3c2)CC1 [Example 47, 4-(2-((2-phenyl-7-((tetrahydro-2H-pyran-4-yl)amino)-1H-indol-5-yl)methoxy)ethyl)thiomorpholine 1,1-dioxide] | 300 to 1000 |
